Measurements from patent US6719996B2, “Galenic composition for low bioavailability medicaments” (Hoffmann-La Roche Inc., priority 2000, dated 2004).

Test: Solubility in cocoa butter/lecithin mixtures
Assay type: physicochemical
Conditions: oil or lipid

Cc1ccccc1-c1cc(N2CCOCC2)ncc1N(C)C(=O)C(C)(C)c1cc(C(F)(F)F)cc(C(F)(F)F)c1 [2-(3,5-bis-trifluoromethyl-phenyl)-N-methyl-N-(6-morpholin-4-yl-4-o-tolyl-pyridin-3-yl)-isobutyramide]
solubility: < 15 mg/mL
